Measured values published in patent US20100196882A1, “GALECTIN-3 nsSNP MARKER FOR CANCER” (priority 2009, published 2010).

Columns and labels:
Format in all cases: cell-based, human
BT-549 Gal-3 H^64 cells [1] = test: Cisplatin induced apoptosis, MTT assay; conditions: BT-549 cells expressing galectin-3 H^64 variant, 25 uM cisplatin, 72 hr, 37° C.
Method: (§1) FIGS. 4I and 4II show cisplatin induced apoptosis of BT-549 cells and cloned variants, FIG. 4I: % apoptosis in cells treated with 25 uM cisplatin for 72 hr at 37° C. and analyzed following MTT assay (ODs in the untreated control cells were calculated as 100%, and the values are the average of triplicate experiments, bars represent ±SD, *P>0.001), FIG. 4II: Western blot analysis of the expression of PARP in cells treated with 50 μM cisplatin after 24, 48, and 72 hours, IIA: BT-549; IIB: BT-549 Gal-3 H^64; IIC: BT-549 Gal-3 P^64 (β-Actin was used as loading control. 1—untreated; 2—24 hours; 3—48 hours; 4—72 hours), FIGS. 4IIIA-B and 4IIIA′-C′: Immunohistochemical analysis of intact and cleaved galectin-3 in breast cancer progression. To investigate the possible functional significance of this allelic variation, BT-549 stable cell clones over-expressing either Galectin-3 P^64 or H^64 variant after transfection, selection, and cloning of BT-549 galectin-3 null cells were generated. […] In parental and P64 clone, the apoptotic cells were 76.5±1.34% and 71.5±3.02% respectively (FIG. 4I). That the cells' death was due to apoptosis was confirmed by the cleavage of PARP. […] A-A′: normal breast tissue, B-B′: ductal hyperplasia, C-C′: infiltrating lobular carcinoma. Arrows in B′ and C′ indicate the cleaved protein, representative pictures are presented from a study of 5 normal breast tissues, 10 lobular hyperplasia, and 8 infiltrating lobular carcinoma cases. 2500 BT-549, BT-549 Gal-3 H^64 and BT-549 Gal-3 P^64 cells were seeded per well in triplicates onto 24 well culture dishes. In one set of wells, 25 μM cisplatin (Sigma-Aldrich Inc., St. Louis, Mo.) was added after 24 hr of seeding, the other non-treated set served as a control. Cell viability/apoptosis was determined after 72 hours by the mitochondrial-dependent reduction of 3-(4,5-dimethylthiazol-2-yl)-2,5-diphenyltetrazolium bromide (MTT) (Sigma-Aldrich Inc., St. Louis, Mo.) to formazan.

BT-549 Gal-3 P^64 cells [2] = test: Cisplatin induced apoptosis, MTT assay; conditions: BT-549 galectin-3 P64 clone, 25 uM cisplatin, 72 hr, 37° C.
Method: as §1

BT-549 cells [3] = test: Cisplatin induced apoptosis, MTT assay; conditions: parental BT-549 cells, 25 uM cisplatin, 72 hr, 37° C.
Method: as §1

BT-549 Gal-3 H^64 cells [4] = test: Western blot analysis of PARP cleavage after cisplatin treatment; conditions: galectin-3 H^64 cells, 50 μM cisplatin, 24, 48, 72 hours
Method: (§2) FIGS. 4I and 4II show cisplatin induced apoptosis of BT-549 cells and cloned variants, FIG. 4I: % apoptosis in cells treated with 25 uM cisplatin for 72 hr at 37° C. and analyzed following MTT assay (ODs in the untreated control cells were calculated as 100%, and the values are the average of triplicate experiments, bars represent ±SD, *P>0.001), FIG. 4II: Western blot analysis of the expression of PARP in cells treated with 50 μM cisplatin after 24, 48, and 72 hours, IIA: BT-549; IIB: BT-549 Gal-3 H^64; IIC: BT-549 Gal-3 P^64 (β-Actin was used as loading control. 1—untreated; 2—24 hours; 3—48 hours; 4—72 hours), FIGS. 4IIIA-B and 4IIIA′-C′: Immunohistochemical analysis of intact and cleaved galectin-3 in breast cancer progression. To investigate the possible functional significance of this allelic variation, BT-549 stable cell clones over-expressing either Galectin-3 P^64 or H^64 variant after transfection, selection, and cloning of BT-549 galectin-3 null cells were generated. […] In parental and P64 clone, the apoptotic cells were 76.5±1.34% and 71.5±3.02% respectively (FIG. 4I). That the cells' death was due to apoptosis was confirmed by the cleavage of PARP. […] A-A′: normal breast tissue, B-B′: ductal hyperplasia, C-C′: infiltrating lobular carcinoma. Arrows in B′ and C′ indicate the cleaved protein, representative pictures are presented from a study of 5 normal breast tissues, 10 lobular hyperplasia, and 8 infiltrating lobular carcinoma cases. To determine if cell death is due to apoptosis, 1×10^6 cells were seeded in 100 mm Petri dishes. After 24 hours of serum starvation, the cells were incubated with […]. After 24, 48, 72 hours, the cells were trypsinized, lysed and equivalent number of cells (1×10^5) were subjected to SDS-PAGE and Western blot analysis with a 1:200 dilution of anti-poly (ADP-ribose) polymerase (PARP), mouse monoclonal antibody (BioMol, Plymouth Meeting, Pa.). Blots were also immuno-reacted with a 1:5000 dilution of anti-b-actin mouse monoclonal antibody to normalize for variation in protein loading. […]

BT-549 Gal-3 P^64 cells [5] = test: as above; conditions: galectin-3 P^64 expressing cells, 50 μM cisplatin, 24, 48, 72 hours
Method: as §2

BT-549 cells [6] = test: as above; conditions: parental BT-549 cells, 50 μM cisplatin, 24, 48, 72 hours
Method: as §2

Q: `N.N.[Cl][Pt][Cl]` [cisplatin] was tested. Which apoptotic cells (BT-549 Gal-3 H^64 cells [1]) did it give?
A: 36.2±2.2%

Q: What about the apoptotic cells (BT-549 Gal-3 P^64 cells [2]) of the same compound?
A: 71.5±3.02%

Q: And the apoptotic cells (BT-549 cells [3])?
A: 76.5±1.34%

Q: What about the “PARP cleavage (85 kDa cleaved polypeptide)” value (“PARP cleavage” below) (BT-549 Gal-3 H^64 cells [4]) of the same compound?
A: refractive to PARP cleavage

Q: What about the “PARP cleavage” value (BT-549 Gal-3 P^64 cells [5]) of the same compound?
A: showed the 85 kDa cleaved polypeptide of PARP

Q: And the “PARP cleavage” value (BT-549 cells [6])?
A: showed the 85 kDa cleaved polypeptide of PARP
